What was measured:
[1] = biological target: human β2 adrenergic receptors (Homo sapiens, UniProt P07550); experiment: cAMP elevation in CHO cells transfected with human β2 adrenergic receptor; assay type: cell-based; details: CHO cells expressing human β2 receptor, compound at 10 nM, 10 min, 37° C., relative to isoproterenol at 10 μM; for activation at 0.01 µM: read-out: β2, % of isoproterenol activity (increase in cAMP)
Method: (§1) The activity of the test compounds on human β-adrenergic receptors was determined with Chinese hamster ovary (CHO) cells transfected with human β3, β2, or β1 adrenergic receptors. The preparation of these cells has been described in Emorine, L. J., Marullo, S., Briend-Sutren, M., Patey, G., Tate, K., Delavier-Klutchko, C., Strosberg, A. D. Molecular Characterization of the Human Beta 3-AdrenergicReceptor Science 1989,245(8), 1118-1121 and in Muzzin, P., Revelli, J.-P., Kuhne, F., Gocayne, J. D., McCombie, W. R., Venter, J. C., Giacobino, J.- P., Fraser, C. M. An Adipose Tissue-Specific Beta 3-Adrenergic Receptor. Molecular Cloning and Down-Regulation in Obesity J. Biol. Chem. 1991, 226, 24053-24058. Agonist activity is indicated by increased cAMP levels in the CHO cells. Selectivity of the test compounds for the β3 receptor was assessed by comparison with results in β2 and β1 adrenergic receptor transfected cells.
(§2) 1). Chinese hamster ovary (CHO) cells transfected with human β3, β2, or β1 adrenergic receptors were used in the assay.
(§3) 2). Cells were grown to confluent conditions in 24 well plates.
(§4) 3). Drugs were dissolved in DMSO at a concentration of 10 μM.
(§5) 4). Cells were incubated with drug at 10 nM concentration for 10 min at 37° C. Isoproterenol (Standard 1) was used as the standard compound and assayed at 10 μM which gives a maximal cAMP elevation in all 3 cell types.
(§6) 5). Cell cAMP concentrations were assayed using a scintillation proximity assay from Amersham Corp (Chicago, Ill.).
(§7) 6). Activities for the test compounds are expressed as a percentage of the isoproterenol response.
(§8) a Human β receptors expressed in Chinese hamster ovary cells, compounds tested at 10 nM, results expressed as % of isoproterenol activity (increase in cAMP) at 10 μM.

[2] = biological target: human β3 adrenergic receptors (Homo sapiens, UniProt P13945); experiment: cAMP elevation in CHO cells transfected with human β3 adrenergic receptor; assay type: cell-based; details: CHO cells expressing human β3 receptor, compound at 10 nM, 10 min, 37° C., relative to isoproterenol at 10 μM; for activation at 0.01 µM: read-out: β3, % of isoproterenol activity (increase in cAMP)
Sequence of human β3 adrenergic receptors (P13945 whole entry): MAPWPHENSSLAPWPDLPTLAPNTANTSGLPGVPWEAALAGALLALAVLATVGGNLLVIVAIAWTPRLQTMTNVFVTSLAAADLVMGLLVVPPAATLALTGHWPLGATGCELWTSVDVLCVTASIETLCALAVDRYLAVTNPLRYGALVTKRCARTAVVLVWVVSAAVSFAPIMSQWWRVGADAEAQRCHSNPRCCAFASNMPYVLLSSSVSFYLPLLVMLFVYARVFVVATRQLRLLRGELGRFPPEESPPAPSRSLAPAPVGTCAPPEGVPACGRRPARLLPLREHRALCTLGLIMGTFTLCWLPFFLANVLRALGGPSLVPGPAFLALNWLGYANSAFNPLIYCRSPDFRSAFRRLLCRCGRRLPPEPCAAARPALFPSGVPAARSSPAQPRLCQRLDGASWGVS
Method: as §1, §2, §3, §4, §5, §6, §7, §8

[3] = tested on: plasma free fatty acids; experiment: Effects on free fatty acid levels in rats; assay type: in vivo, rat; details: for Rat Free Fatty Acid, elevation of plasma free fatty acids as % of Standard 2 response: 0.1 mg/kg via gavage, blood collected 50 min later, relative to Standard 2 at 0.1 mg/kg
Method: Rats respond to a single oral dose of β3 agonist by increasing plasma free fatty acids (FFA) in response to β3 receptor stimulation on the plasma membrane of the fat cell. 5-{2-[2-(3-Chloro-phenyl)-2-hydroxy-ethylamino]-propyl}-benzo[1,3]dioxole- 2,2-dicarboxylic acid diisopropyl ester (Standard 2) was used as a standard compound. All test compounds were dosed at 0.1 mg/kg and compared to the response by Standard 2.
1). Drugs were dissolved in DMSO at 10 mg/mL.
2). Twenty μl of the DMSO-drug solution was added to 10 mL methyl cellulose:Tween-80 (0.5%:0.1%) for a final concentration of 20 μg/mL.
3). Methyl cellulose:tween-80 drug suspension was given via gavage (1 mL/200g body weight; or 0.1 mg/kg) to rats and blood was collected 50 min later.
4). Plasma was analyzed for free fatty acids using a kit supplied by Biochemical Diagnostics Inc. (Brentwood, N.Y.).
5). Drug response was calculated from the formula below. [formula] Effects on Hyperglycemia in Mice
b Elevation of plasma free fatty acids in rats, compounds tested at 0.1 mg/kg, results expressed as % of 5-{2-[2-(3-chloro-phenyl)-2-hydroxy-ethylamino]-propyl}-benzo[1,3]dioxole- 2,2-dicarboxylic acid diisopropyl ester response (78% increase) at 0.1 mg/kg.

Sequence of human β2 adrenergic receptors (P07550 whole entry): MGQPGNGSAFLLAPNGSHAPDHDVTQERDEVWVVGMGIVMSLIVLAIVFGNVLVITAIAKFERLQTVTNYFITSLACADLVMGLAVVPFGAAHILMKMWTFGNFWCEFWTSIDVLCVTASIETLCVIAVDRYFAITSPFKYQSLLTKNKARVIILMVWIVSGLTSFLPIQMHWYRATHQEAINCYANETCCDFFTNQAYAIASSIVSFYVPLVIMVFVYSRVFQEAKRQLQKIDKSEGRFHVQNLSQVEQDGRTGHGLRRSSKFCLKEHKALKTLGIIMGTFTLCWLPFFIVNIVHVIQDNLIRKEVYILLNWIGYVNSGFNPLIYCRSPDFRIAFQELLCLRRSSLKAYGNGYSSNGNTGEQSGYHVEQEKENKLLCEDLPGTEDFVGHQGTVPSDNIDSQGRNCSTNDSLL

Row | SMILES | β2, % of isoproterenol activity (increase in cAMP) [1] | β3, % of isoproterenol activity (increase in cAMP) [2] | Rat Free Fatty Acid, elevation of plasma free fatty acids as % of Standard 2 response [3] | increase of plasma free fatty acids in rats ([3]; 0.1 mg/kg, response of the standard itself) | activation at 0.01 µM [1] | activation at 0.01 µM [2]
1 | CCOCCOC(=O)C1Oc2ccc(C[C@@H](C)NC[C@H](O)c3cccc(Cl)c3)cc2OC1C(=O)OCCOCC (relative stereo) [Example 7, (2,3-cis)-6-{(2R)-2-[(2R)-2-(3-Chloro-phenyl)-2-hydroxy-ethylamino]-propyl}-2,3-dihydro-benzo[1,4]dioxine-2,3-dicarboxylic acid bis-(2-ethoxy-ethyl)ester] | 33% | 40% | 7% | – | – | –
2 | CC(Cc1ccc2c(c1)OC(C(=O)OC(C)C)(C(=O)OC(C)C)O2)NCC(O)c1cccc(Cl)c1 (centres unmarked) [5-{2-[2-(3-Chloro-phenyl)-2-hydroxy-ethylamino]-propyl}-benzo[1,3]dioxole-2,2-dicarboxylic acid diisopropyl ester, reference compound] | – | – | – | 78% | – | –
3 | CC(C)OC(=O)C1Oc2ccc(C[C@@H](C)NC[C@H](O)c3cccc(Cl)c3)cc2OC1C(=O)OC(C)C (some centres unmarked) [Example 4] | – | – | 32% | – | 9% | 4%
4 | CC(C)OC(=O)C1Oc2cc(C[C@@H](C)NC[C@H](O)c3cccc(Cl)c3)ccc2OC1C(=O)O (stereo partly drawn) [Example 5, (2,3-cis)-6-{(2R)-2-[(2R)-2-(3-Chloro-phenyl)-2-hydroxy-ethylamino]-propyl}-2,3-dihydro-benzo[1,4]dioxine-2,3-dicarboxylic acid 3-isopropyl ester] | – | – | 6% | – | 11% | 50%
5 | CCCCOC(=O)C1Oc2ccc(C[C@@H](C)NC[C@H](O)c3cccc(Cl)c3)cc2OC1C(=O)OCCCC (some centres unmarked) [Example 6] | – | – | 0% | – | 16% | 51%
6 | CCOC(=O)C1Oc2ccc(C[C@@H](C)NC[C@H](O)c3cccc(Cl)c3)cc2OC1C(=O)OCC (stereo partly drawn) [Example 8, (2,3-cis)-6-{(2R)-2-[(2R)-2-(3-Chloro-phenyl)-2-hydroxy-ethylamino]-propyl}-2,3-dihydro-benzo[1,4]dioxine-2,3-dicarboxylic acid diethyl ester] | – | – | 19% | – | – | –
7 | C[C@H](Cc1ccc2c(c1)OC(C(=O)OC1CCCCC1)C(C(=O)OC1CCCCC1)O2)NC[C@H](O)c1cccc(Cl)c1 (stereo partly drawn) [Example 9, (2,3-cis)-6-{(2R)-2-[(2R)-2-(3-Chloro-phenyl)-2-hydroxy-ethylamino]-propyl}-2,3-dihydro-benzo[1,4]dioxine-2,3-dicarboxylic acid dicyclohexyl ester] | – | – | 3% | – | 1% | 3%
8 | C[C@H](Cc1ccc2c(c1)OC(C(=O)OC1CCCC1)C(C(=O)OC1CCCC1)O2)NC[C@H](O)c1cccc(Cl)c1 (stereo partly drawn) [Example 10, (2,3-cis)-6-{(2R)-2-[(2R)-2-(3-Chloro-phenyl)-2-hydroxy-ethylamino]-propyl}-2,3-dihydro-benzo[1,4]dioxine-2,3-dicarboxylic acid dicyclopentyl ester] | – | – | 20% | – | 4% | 3%
9 | CCCCCCCCOC(=O)C1Oc2ccc(C[C@@H](C)NC[C@H](O)c3cccc(Cl)c3)cc2OC1C(=O)OCCCCCCCC (stereo partly drawn) [Example 11, (2,3-cis)-6-{(2R)-2-[(2R)-2-(3-Chloro-phenyl)-2-hydroxy-ethylamino]-propyl}-2,3-dihydro-benzo[1,4]dioxine-2,3-dicarboxylic acid dioctyl ester] | – | – | 5% | – | 38% | 97%
10 | C[C@H](Cc1ccc2c(c1)OC(C(=O)OCc1ccccc1)C(C(=O)OCc1ccccc1)O2)NC[C@H](O)c1cccc(Cl)c1 (stereo partly drawn) [Example 12, (2,3-cis)-6-{(2R)-2-[(2R)-2-(3-Chloro-phenyl)-2-hydroxy-ethylamino]-propyl}-2,3-dihydro-benzo[1,4]dioxine-2,3-dicarboxylic acid dibenzyl ester] | – | – | 11% | – | 11% | 27%

— patent publication US5965607A, “Substituted Benzo[1,4]dioxines as antiobesity agents” (American Home Products Corporation, priority 1997, dated 1999)
